US11091522B2, “Peptidomimetic macrocycles and uses thereof” (priority 2018, dated 2021)

What was measured:
[1] = Safety pharmacology, cardiac function; format: in vivo; conditions: cynomolgus monkeys
[2] = tested on: Caspase 3; assay: Caspase 3 detection assay in SJSA-1 cells; format: cell-based, human; conditions: SJSA-1 osteosarcoma cells
Method: One the day of the assay, the media was replaced with fresh RPMI-11% FBS assay media. […] Control wells contained no cells, and received 200 μL of the assay media.
The solutions were serially diluted 33.3 times using sterile water to provide a range of 10× working stock solutions. […] 20 μL of the 10× working stock solutions were added to the appropriate wells. Row H of the plates had control wells. Wells H1-H3 received 20 μL of the assay media. […] Wells H10-H12 received media and had no cells. […] Nutlin-3a was diluted using the same dilution scheme as the peptides.
10 μL of the 10× stock solutions were added to the appropriate wells to achieve the final concentrations in a total volume of 100 μL. […] 48 h after incubation, 80 μL of the media was aspirated from each well. 100 μL of Caspase 3/7Glo assay reagent was added to each well. […] Data were analyzed as Caspase 3 activation over DMSO-treated cells.

With `CC(=O)N[C@@H](CC(C)C)C(=O)N[C@H](C(=O)N[C@@H](Cc1ccccc1)C(=O)N[C@]1(C)CCCCCC/C=C\CCC[C@@](C)(C(=O)N[C@@H](C)C(=O)N[C@@H](C)C(=O)N[C@@H](C)C(=O)N[C@@H](C)C(=O)N[C@@H](C)C(=O)N[C@H](C)C(N)=O)NC(=O)[C@H](CC(C)C)NC(=O)[C@H](CCC(N)=O)NC(=O)[C@H](C)NC(=O)[C@H](Cc2c[nH]c3ccccc23)NC(=O)[C@H](Cc2ccc(O)cc2)NC(=O)[C@H](CCC(=O)O)NC1=O)[C@@H](C)O` [AP1] the “effects on cardiac function” value [1] was “No significant adverse findings” and the cellular caspase activity [2] was “increases in cellular caspase activity”.
